Results published in patent publication US10517867B2, “Posaconazole derivative, pharmaceutical composition and use thereof” (priority 2016, dated 2019).
Read-outs that look alike come from different tables or passages of the source.

How the values were obtained:
[1] = Determination of solubility in deionized water (HPLC, external standard)
[2] = test system: Aspergillus fumigatus AF293; test: Lung Aspergillus fumigatus infection in immunosuppressed mice, intravenous administration; conditions: for responders at 20 mg/kg: Aspergillus fumigatus, AF293, in Mus musculus, iv
Procedure: ICR male mice were injected intraperitoneally with cyclophosphamide 150 mg/kg and injected subcutaneously with dexamethasone 150 mg/kg for 10 consecutive days. At the same time, the blood was taken to measure the changes of peripheral white blood cells and neutrophils, and mice with neutrophils consistently lower than 100/μl were selected as successfully immunosuppressed mice. Immediately after the last injection, the mice were anesthetized with ethyl ether, and mice were transferred from the initial state of excitement to inhibition. After their bodies were relaxed, the mice were immediately taken. Left hand was used to grasp the mouse to make it stand upright, the middle finger pressed the mouth so that it could breath only with the nose, and the ring finger gently pressed the abdomen to move the diaphragm muscle upward. 30 μl of conidia suspension (Aspergillus fumigatus AF293, 3×10^6 conidia) was sent to the nostrils of the anesthetized mice by a micropipette to allow spontaneous inhalation. After the mouse returned to normal breathing, it was returned to the cage. […] The death of the mice was observed and the survival time was recorded. Seven days later, the mice were sacrificed and their lung tissues were taken to observe the fungal loads of Aspergillus fumigatus in the lungs of the mice.

[3] = test system: Candida albicans ATCC10231; test: Candida albicans vaginitis in mice, intragastric administration; type: in vivo, KM mice; conditions: logarithm of the CFU values, mean ± SD of 20 mice
[4] = test system: Aspergillus fumigatus AF293; test: Lung Aspergillus fumigatus infection in immunosuppressed mice, intragastric administration; conditions: mouse lung tissue, seven days later; 20 mg/kg intragastric once daily for 5 days; mean ± SD
Procedure: Aspergillus fumigatus AF293, from the Guangdong Provincial Microbial Culture Collection Center.
ICR male mice were injected intraperitoneally with cyclophosphamide 150 mg/kg and injected subcutaneously with dexamethasone 150 mg/kg for 10 consecutive days. At the same time, the blood was taken to measure the changes of peripheral white blood cells and neutrophils, and mice with neutrophils consistently lower than 100/μl were selected as successfully immunosuppressed mice. Immediately after the last injection, the mice were anesthetized with ethyl ether, and mice were transferred from the initial state of excitement to inhibition. After their bodies were relaxed, the mice were immediately taken. Left hand was used to grasp the mouse to make it stand upright, the middle finger pressed the mouth so that it could breath only with the nose, and the ring finger gently pressed the abdomen to move the diaphragm muscle upward. 30 μl of conidia suspension (Aspergillus fumigatus AF293, 3×10^6 conidia) was sent to the nostrils of the anesthetized mice by a micropipette to allow spontaneous inhalation. After the mouse returned to normal breathing, it was returned to the cage. […] Seven days later, the mice were sacrificed and their lung tissues were taken to observe the fungal loads of Aspergillus fumigatus in the lungs of the mice.

[5] = test system: Aspergillus Fumigutus (AF) strains; test: Aspergillus fumigatus keratitis in rats, intravenous administration; conditions: 10 mg/kg tail vein once daily for 5 days; mean ± SD of 10 rats
[6] = test system: Candida albicans ATCC10231; test: Systemic fungal infection in mice, intragastric administration; type: in vivo, ICR mice; conditions: for responders at 20 mg/kg: Candida albicans, ATCC10231, po
[7] = Solid stability test (stability chamber, HPLC total impurity); type: physicochemical; conditions: solid, packaged, 25° C.±2° C., relative humidity 60%±2%
[8] = Pharmacokinetics after single intragastric administration to rats; type: in vivo, SD rats; conditions: plasma posaconazole, 2.5 mg/kg (calculated as posaconazole)
Procedure: Administration amount: 2.5 mg/kg (calculated as posaconazole)
Administration volume: 10 ml/kg
Drug concentration: 0.25 mg/mL
Administration vehicle: the positive drug posaconazole group used CMC—Na, while other groups used normal saline (physiological saline)
Administration route: intragastric administration
Experimental animals: SD rats, SPF grade, weighing 180-220 g, equal amount of male and female. Rats were randomly divided into groups of 6 with 3 males and 3 females.
Experimental protocol: after oral intragastric administration, blood samples were collected at different time points to determine the concentration of posaconazole in the plasma and the pharmacokinetic parameters of posaconazole were obtained.

[9] = In vitro metabolic stability in rat intestine S9; type: in vitro ADME; conditions: 37° C., 10 μM compound, 1 mg/mL S9, NADPH regeneration system
Summary of the method: (§1)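 Human or rat plasma, preincubated 5 min at 37 °C, or intestinal S9 at 37 °C, spiked from 1 mM stock; triplicates sampled at 1, 2, 5, 15 and 30 min into cold internal standard. HPLC quantitation; half-life by non-compartmental analysis.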

[10] = In vitro metabolic stability in human intestine S9; type: in vitro ADME; conditions: 37° C., 10 μM compound, 1 mg/mL S9, NADPH regeneration system
Summary of the method: as §1

[11] = In vitro metabolic stability in rat plasma; type: in vitro ADME; conditions: 37° C., 10 μM compound, metabolic half-life
Summary of the method: as §1

[12] = In vitro metabolic stability in human plasma; type: in vitro ADME; conditions: 37° C., 10 μM compound, metabolic half-life
Summary of the method: as §1

SMILES: CC[C@@H]([C@H](C)OC(=O)[C@@H](N)CO)n1ncn(-c2ccc(N3CCN(c4ccc(OC[C@@H]5CO[C@@](Cn6c[n+](C(C)OC(=O)N(C)c7ncccc7COC(=O)[C@@H](N)CCCN)cn6)(c6ccc(F)cc6F)C5)cc4)CC3)cc2)c1=O (stereo partly drawn) [ST0010]
- solubility at 30 min ([1]; 25 °C, water, thermodynamic from solid): > 50 mg/mL
- responders at 20 mg/kg ([2]; 24 h, read-out: survival rate of mice, day 1, 20 mg/kg tail vein once daily for 5 days, day 1): 100%
- responders at 20 mg/kg ([2]; 48 h, read-out: survival rate of mice, day 2, 20 mg/kg tail vein once daily for 5 days, day 2): 100%
- responders at 20 mg/kg ([2]; 72 h, read-out: survival rate of mice, day 3, 20 mg/kg tail vein once daily for 5 days, day 3): 90%
- responders at 20 mg/kg ([2]; 96 h, read-out: survival rate of mice, day 4, 20 mg/kg tail vein once daily for 5 days, day 4): 80%
- responders at 20 mg/kg ([2]; 120 h, read-out: survival rate of mice, day 5, 20 mg/kg tail vein once daily for 5 days, day 5): 80%
- responders at 20 mg/kg ([2]; 144 h, read-out: survival rate of mice, day 6, 20 mg/kg tail vein once daily for 5 days, day 6): 70%
- responders at 20 mg/kg ([2]; 168 h, read-out: survival rate of mice, day 7, 20 mg/kg tail vein once daily for 5 days, day 7): 60%
- lung fungal load ([2]; mouse lung tissue, seven days later, 20 mg/kg tail vein once daily for 5 days, mean ± SD): 2.75 ± 0.37 10^4 CFU/ml
- vaginal fungal load of mice, day 15 ([3]; 20 mg/kg intragastric once a day for 15 days, day 15): 2.75 ± 0.41
- vaginal fungal load of mice, day 3 ([3]; 20 mg/kg intragastric once a day, day 3): 4.21 ± 0.32
- vaginal fungal load of mice, day 5 ([3]; 20 mg/kg intragastric once a day, day 5): 4.38 ± 0.41
- vaginal fungal load of mice, day 7 ([3]; 20 mg/kg intragastric once a day, day 7): 3.97 ± 0.55
- vaginal fungal load of mice, day 11 ([3]; 20 mg/kg intragastric once a day, day 11): 3.37 ± 0.28
- lung fungal load [4]: 3.40 ± 0.63 10^4 CFU/ml
- Amount of active fungi in cornea at day 7 [5]: 3.93 ± 0.73 10^3 CFU/ml
- responders at 20 mg/kg ([6]; 24 h, read-out: survival rate of mice, day 1, 20 mg/kg intragastric once daily for 5 days, day 1): 100%
- responders at 20 mg/kg ([6]; 48 h, read-out: survival rate of mice, day 2, 20 mg/kg intragastric once daily for 5 days, day 2): 100%
- responders at 20 mg/kg ([6]; 72 h, read-out: survival rate of mice, day 3, 20 mg/kg intragastric once daily for 5 days, day 3): 90%
- responders at 20 mg/kg ([6]; 96 h, read-out: survival rate of mice, day 4, 20 mg/kg intragastric once daily for 5 days, day 4): 70%
- responders at 20 mg/kg ([6]; 120 h, read-out: survival rate of mice, day 5, 20 mg/kg intragastric once daily for 5 days, day 5): 70%
- responders at 20 mg/kg ([6]; 144 h, read-out: survival rate of mice, day 6, 20 mg/kg intragastric once daily for 5 days, day 6): 60%
- responders at 20 mg/kg ([6]; 168 h, read-out: survival rate of mice, day 7, 20 mg/kg intragastric once daily for 5 days, day 7): 60%

SMILES: CCC(O[C@@H](C)[C@H](CC)n1ncn(-c2ccc(N3CCN(c4ccc(OC[C@@H]5CO[C@@](Cn6cncn6)(c6ccc(F)cc6F)C5)cc4)CC3)cc2)c1=O)OP(=O)([O-])[O-].[Na+].[Na+] (stereo partly drawn) [ST0093]
- Total impurity increment in 30 days [7]: 0.91%
- AUClast [8]: 3056 ± 1265 ng·h/mL
- Cmax [8]: 125 ± 58 ng/mL
- T1/2 [8]: 746.4 ± 128 min
- Rat intestine S9 T1/2 [9]: 57.25 ± 12.56 min
- Solubility ([1]; 25±2° C., after 30 min): 27.9 mg/mL
- Human intestine S9 T1/2 [10]: 61.98 ± 14.26 min
- Rat plasma T1/2 [11]: 15.69 ± 4.88 min
- survival rate of mice, day 1 ([6]; 20 mg/kg intragastric once daily for 5 days, day 1): 70%
- survival rate of mice, day 2 ([6]; 20 mg/kg intragastric once daily for 5 days, day 2): 70%
- survival rate of mice, day 3 ([6]; 20 mg/kg intragastric once daily for 5 days, day 3): 60%
- survival rate of mice, day 4 ([6]; 20 mg/kg intragastric once daily for 5 days, day 4): 60%
- survival rate of mice, day 5 ([6]; 20 mg/kg intragastric once daily for 5 days, day 5): 60%
- survival rate of mice, day 6 ([6]; 20 mg/kg intragastric once daily for 5 days, day 6): 60%
- survival rate of mice, day 7 ([6]; 20 mg/kg intragastric once daily for 5 days, day 7): 60%
- Human plasma T1/2 [12]: 18.95 ± 2.76 min
